Legend:
Akt kinase activity [1] = assay: Akt kinase sensor (AS1T/AS1A) complemented FL activity, luminometer assay in transiently transfected BT474 cells; type: cell-based, human; conditions: BT474 transiently transfected with AS1T, 24 hours, at 50 μM, relative to carrier control, p<0.05
Description: FL activity was determined by luminometer assays using cell lysates and normalized for protein content and transfection efficiency. LY treatment of BT474 cells transiently transfected with AS1T led to a dose dependent increase in FL activity in (1.3-fold maximum increase, p<0.05 at 50 μM, relative to carrier control treated cells).
(§1) Transfections were performed in 80% confluent 24 hr-old cultures of 293T and BT474 cells. For transient transfection, 250 ng/well of pcDNA molar equivalent of each AS1A and AS1T were used in 12-well tissue culture plates and 5 μl Lipofectamine 2000 was used per transfection following the manufacturer's instructions. 5 ng of pcDNA3.1(+) vector expressing full length RL was co-transfected per well to normalize for transfection efficiency. […]
(§2) In brief, transfected cells were lysed in 200 μl of ice-cold 1× passive lysis buffer supplied by Promega and were shaken for 15 mins on ice. […] RL activity was determined as described for FL activity, except 0.5 μg of coelenterazine dissolved in 100 μl of was used. Protein concentrations in cell lysates were determined by Bradford Assay (Bio-Rad). FL activities were normalized for protein content and for transfection efficiency using RL activity and expressed as relative light units per microgram protein per minute of counting (RLU/μg protein/min).

Akt kinase activity [2] = assay: Akt kinase sensor complemented FL activity, luminometer assay in transiently transfected 293T cells; type: cell-based, human
Description: Next the hypothesis that activation of Akt activity would lead to increased phosphorylation of AKM and interaction with FHA2 in AS1T was tested, and subsequent inhibition of split FL complementation. 293T cells transiently transfected with AS1T and AS1A were treated with platelet derived growth factor (PDGF) for 30 minutes prior to analysis of FL activity.
To increase the dynamic range of AS1T for indirect monitoring of Akt kinase activity, the original FL fragments (NFL: 1-416/CFL: 398-550) were replaced with the optimal split FL sites (1-398/394-550) as AS2T. The corresponding FL fragments in AS1A were also replaced to create AS2A. 293T cells transiently transfected with AS2T or AS2A were treated with different concentrations of LY or carrier control for 24 hours prior to analysis of FL activity. […] To determine if the specificity of AS2 can be restored by using more rigid linkers, the flexible (G4S)3 linkers were replaced with (EAAAR)3 used for intramolecular folding sensors previously used to studying FRB/FKBP12 interactions. However, there was a loss of specificity in response to LY.
as §1, §2

Akt kinase activity [3] = assay: Akt kinase sensor complemented FL activity, bioluminescence imaging of intact 293T/AS1T and 293T/AS1A stable cells; type: cell-based, human; conditions: AS1T sensor
Description: Complemented FL activity at each time point was determined by bioluminescence imaging of intact cells by addition of D-luciferin (FIG. 7a), prior to normalization for protein content (FIG. 7b).
FL activities in intact cells were determined by bioluminescence imaging of intact cells as described above. Cells were lysed in 1% NP40 buffer (Cell Signaling, Beverly, Mass.) for 15 mins on ice followed by centrifugation at 1×10^4 g to remove cell debris. Protein concentrations were determined by Biorad protein Dc assay (Biorad). FL activities were normalized to protein content and then to that of carrier control treated cells and expressed as normalized FL activity±standard error of means (S.E.M.)

[4] = test system: insulin receptor substrate 1 (IRS-1) phosphorylation; assay: Renilla Luciferase based IRS-1 phosphorylation sensor, luminometer assay in transfected CHO-IR cells; type: cell-based; conditions: 24 h incubation, insulin 0, 25, 50 and 100 nM
Description: FIG. 3 is a graph of the activation of the Renilla Luciferase based IRS-1 phosphorylation sensor as a function of Insulin concentration. Luminometer assay result of CHO-IR cells transfected with a phosphorylation sensor vector and assayed after 24 h of incubation with the addition of different concentrations of insulin (0, 25, 50 and 100 nM).
The IRS-1 phosphorylation sensor was tested based on split renilla and split Firefly Luciferase in transient transfection assays in cell culture with and without insulin. The single fusion vector (FIG. 2) was utilized with split Renilla Luciferase (split site 229, non-self complementing), with a semi-rigid peptide ((EAAAR)2 (SEQ ID NO: 36)) through screening of different peptides. The phosphorylation domain was the PTB peptide and was chosen to be an 13 amino acid peptide (SEQ ID NO: 28) including Y941 (tyrosine at position 941 of IRS-1). The substrate recognition domain was chosen to be the SH2 domain of PI3 Kinase. The vector constructed was transiently transfected in CHO-IR (expressing the insulin receptor) and 293T cells (not expressing the insulin receptor).

[5] = test system: insulin receptor substrate 1 (IRS-1) phosphorylation; assay: Firefly Luciferase based IRS-1 phosphorylation sensor in transfected CHO-IR cells; type: cell-based; conditions: presence of insulin compared to no insulin exposure
Source text: FIG. 4 is a graph of the activation of the Firefly Luciferase based IRS-1 phosphorylation sensor as a function of Insulin exposure. Results of CHO-IR cells transfected and co-transfected with a self-complementing Firefly Luciferase based IRS-1 sensor used for studying insulin mediated IRS-1 phosphorylation. A two-vector system, single fusion vector with and without a semi-rigid linker were all compared. Greater absolute signal is seen with the fusion vector strategies.
Next, constructs were made using self-complementing split fragments of Firefly Luciferase with a semi-rigid linker or without any linker, and these were compared with two separate vectors (non-fusion approach) in CHO-IR cells in the presence and absence of insulin (FIG. 3). The results of these studies show signal from all three vectors in the presence of insulin, but the highest absolute signal is from the two fusion vectors. Furthermore, for the two fusion vectors the background signal is lowest (prior to insulin exposure) when using the fusion vector with a semi-rigid linker.
The fusion strategy increases absolute signal as compared to using two separate vectors. Furthermore, using a semi-rigid linker decreases background signal in the fusion vector strategy. […]

[6] = test system: insulin receptor substrate 1 (IRS-1) phosphorylation; assay: Bioluminescence CCD imaging of split Firefly Luciferase IRS-1 phosphorylation sensor, CHO-IR cells implanted in living mice; type: in vivo, nude mice; conditions: mice with implanted sensor-transfected CHO-IR cells, 4 IU s.c. in twelve hour intervals, imaged 24 hours later
Description: FIG. 5 illustrates a bioluminescence CCD imaging of a split Firefly Luciferase based Insulin Receptor Substrate 1 (IRS-1) phosphorylation sensor in a living mouse.
Four nude mice were implanted with 5 million CHO-IR cells transiently transfected with the fusion split firefly IRS-1 phosphorylation sensor with linker (EAAAR)2 and also with 5 million CHO-IR mock-transfected cells at two separate sites. The mice were imaged using D-Luciferin (3 mg i.p.) with a CCD camera. Two mice were then given 4 IU human long-acting insulin (s.c.) in twelve hour intervals, and two were not given insulin and all four were imaged again 24 hours later. Consistent results were obtained in the 2 mice in each group with exposure to insulin leading to an increase in signal (˜5-fold induction) and lack of insulin exposure leading to minimal change (˜1.3 fold induction).

Compound: O=c1cc(N2CCOCC2)oc2c(-c3ccccc3)cccc12 [LY, LY294002]
- maximum increase in FL activity (Akt kinase activity [1]): 1.3 fold
- increase in FL activity with AS2T or AS2A compared to AS1T or AS1A (Akt kinase activity [2]; 293T transiently transfected, LY for 24 hours, unpublished data): 2 fold
- maximum induction (dynamic range of AS1T) (Akt kinase activity [3]): 4 fold

Compound: insulin
- complemented Renilla Luciferase activity [4]: concentration dependent increase
- signal of split bioluminescence reporter IRS-1 sensor [5]: increased signal
- increase in signal (induction) [6]: ~5 fold induction

Compound: platelet derived growth factor [PDGF]
- FL activity (Akt kinase activity [2]; 293T transiently transfected with AS1A, 30 minutes treatment, p>0.05): did not significantly decrease
- decrease in FL activity (Akt kinase activity [2]; 293T transiently transfected with AS1T, 30 minutes treatment, vs carrier control, p<0.05): 60%

Reference: patent US7834148B2, “Protein phosphorylation imaging systems, methods of making phosphorylation imaging systems, and methods of use thereof” (Stanford University, priority 2006, dated 2010)
